{"source": "patent US20230085307A1", "about": "“PYRIDAZINONE COMPOUND AND HERBICIDE” (NISSAN CHEMICAL CORPORATION, priority 2019, published 2023)", "key": {"barnyard grass [1]": {"tested_on": "barnyard grass", "experiment": "Test Example 3: herbicidal effect by foliage application, Wagner pot (Table 18, symbol H)", "type": "in vivo, barnyard grass (Echinochloa crus-galli)", "procedure,_shortened": "(§1)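 Plants were sown in alluvial soil held under 0.1–0.5 cm standing water and grown 14 days in a greenhouse at 25–30 °C. An emulsifiable formulation, water-diluted to the set dose, was then sprayed onto the foliage, and effects were scored three weeks later using previously defined criteria.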"}, "barnyard grass [2]": {"tested_on": "barnyard grass", "experiment": "Test Example 5: herbicidal effect by foliage application, plastic box (Table 20, symbol H)", "type": "in vivo, barnyard grass (Echinochloa crus-galli)", "procedure,_shortened": "(§2)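 Plants sown in sterilized diluvial soil and grown 14 days in a greenhouse at 25° C to 30° C, then sprayed on the foliage with the compound's emulsion diluted in water to a predetermined herbicide amount. Injury to weeds and crops scored three weeks after application on a visual rating scale.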"}, "rice flat sedge": {"tested_on": "rice flat sedge", "experiment": "Test Example 3: herbicidal effect by foliage application, Wagner pot (Table 18, symbol E)", "type": "in vivo, rice flat sedge (Cyperus iria)", "procedure,_shortened": "as §1"}, "wild oat": {"tested_on": "wild oat", "experiment": "Test Example 5: herbicidal effect by foliage application, plastic box (Table 20, symbol I)", "type": "in vivo, wild oat (Avena fatua)", "procedure,_shortened": "as §2"}, "lambsquarters": {"tested_on": "lambsquarters", "experiment": "Test Example 5: herbicidal effect by foliage application, plastic box (Table 20, symbol O)", "type": "in vivo, lambsquarters (Chenopodium album)", "procedure,_shortened": "as §2"}, "Italian ryegrass": {"tested_on": "Italian ryegrass", "experiment": "Test Example 5: herbicidal effect by foliage application, plastic box (Table 20, symbol K)", "type": "in vivo, Italian ryegrass (Lolium multiflorum)", "procedure,_shortened": "as §2"}, "southern crabgrass": {"tested_on": "southern crabgrass", "experiment": "Test Example 5: herbicidal effect by foliage application, plastic box (Table 20, symbol F)", "type": "in vivo, southern crabgrass (Digitaria ciliaris)", "procedure,_shortened": "as §2"}, "chickweed": {"tested_on": "chickweed", "experiment": "Test Example 5: herbicidal effect by foliage application, plastic box (Table 20, symbol P)", "type": "in vivo, common chickweed (Stellaria media)", "source_text": "(§3) [Test Example 5] Herbicidal Effect Test by Foliage Application\n(§4) Sterilized diluvial soil was placed in a plastic box having a length of 21 cm, a width of 13 cm, and a depth of 7 cm. The seeds of each of southern crabgrass, green foxtail, barnyard grass, wild oat, blackgrass, Italian ryegrass, windgrass, velvetleaf, redroot pigweed, lambsquarters, chickweed, false cleavers, persian speedwell, corn, soybean, rice, wheat, beet, and rapeseed were sowed in a spot-like manner and covered with the soil having a thickness of about 1.5 cm. Thereafter, the plants were grown in a greenhouse at 25° C. to 30° C. After 14-day growth of the plants, the emulsion agent of the compound of the present invention prepared according to Formulation Example 2 was diluted with water so as to achieve a predetermined herbicide amount, and the diluted emulsion agent was uniformly applied to a foliage part with a small-sized spray. Three weeks after the herbicide application, the effect of the herbicide on each plant was evaluated according to the criteria of Test Example 1."}, "Chinese sprangletop": {"tested_on": "Chinese sprangletop", "experiment": "Test Example 3: herbicidal effect by foliage application, Wagner pot (Table 18, symbol D)", "type": "in vivo, chinese sprangletop (Leptochloa chinensis)", "procedure,_shortened": "as §1"}, "redroot pigweed": {"tested_on": "redroot pigweed", "experiment": "Test Example 5: herbicidal effect by foliage application, plastic box (Table 20, symbol N)", "type": "in vivo, redroot pigweed (Amaranthus retroflexus)", "source_text": "as §3, §4"}, "velvetleaf": {"tested_on": "velvetleaf", "experiment": "Test Example 5: herbicidal effect by foliage application, plastic box (Table 20, symbol M)", "type": "in vivo, velvetleaf (Abutilon theophrasti)", "procedure,_shortened": "as §2"}, "blackgrass": {"tested_on": "blackgrass", "experiment": "Test Example 5: herbicidal effect by foliage application, plastic box (Table 20, symbol J)", "type": "in vivo, blackgrass (Alopecurus myosuroides)", "procedure,_shortened": "as §2"}, "green foxtail": {"tested_on": "green foxtail", "experiment": "Test Example 5: herbicidal effect by foliage application, plastic box (Table 20, symbol G)", "type": "in vivo, green foxtail (Setaria viridis)", "procedure,_shortened": "as §2"}, "persian speedwell": {"tested_on": "persian speedwell", "experiment": "Test Example 5: herbicidal effect by foliage application, plastic box (Table 20, symbol R)", "type": "in vivo, Persian speedwell (Veronica persica)", "conditions": "foliage application", "procedure,_shortened": "as §2"}, "windgrass": {"tested_on": "windgrass", "experiment": "Test Example 5: herbicidal effect by foliage application, plastic box (Table 20, symbol L)", "type": "in vivo, windgrass (Apera spica-venti)", "conditions": "amount of applied herbicide 320 g/ha; foliage application after 14-day growth; evaluated three weeks after application", "procedure,_shortened": "as §2"}, "[3]": {"conditions": "foliage application, 99 g/ha, three weeks after application"}, "[4]": {"conditions": "amount of applied herbicide 320 g/ha"}, "[5]": {"conditions": "foliage application, AAH 320 g/ha, evaluated three weeks after application"}, "[6]": {"conditions": "amount of applied herbicide 320 g/ha, foliage application after 14-day growth, evaluated three weeks after application"}}}
{"smiles": "COc1c(C)cccc1-c1sc2ccccc2c1-c1c(O)c(C)nn(C)c1=O", "note": "[1-067]", "values": [{"measurement": "herbicidal effect on H (barnyard grass), rating 0-5", "setting": "barnyard grass [1]; 99 g/ha", "result": "3 (Herbicidal rate of 40% or more and less than 70%)"}, {"measurement": "herbicidal effect grade, H: barnyard grass", "setting": "barnyard grass [2]; [3]", "result": "0 (Herbicidal rate of 5% or less (almost no effect))"}, {"measurement": "herbicidal effect on E (rice flat sedge), rating 0-5", "setting": "rice flat sedge; 99 g/ha", "result": "0 (Herbicidal rate of 5% or less (almost no effect))"}, {"measurement": "herbicidal effect grade, I: wild oat", "setting": "wild oat; [3]", "result": "0 (Herbicidal rate of 5% or less (almost no effect))"}, {"measurement": "herbicidal effect grade, O: lambsquarters", "setting": "lambsquarters; [3]", "result": "0 (Herbicidal rate of 5% or less (almost no effect))"}, {"measurement": "herbicidal effect grade, K: Italian ryegrass", "setting": "Italian ryegrass; [3]", "result": "0 (Herbicidal rate of 5% or less (almost no effect))"}, {"measurement": "herbicidal effect grade, F: southern crabgrass", "setting": "southern crabgrass; [3]", "result": "0 (Herbicidal rate of 5% or less (almost no effect))"}, {"measurement": "herbicidal effect grade, P: chickweed", "setting": "chickweed; [3]", "result": "2 (Herbicidal rate of 20% or more and less than 40%)"}, {"measurement": "herbicidal effect on D (Chinese sprangletop), rating 0-5", "setting": "Chinese sprangletop; 99 g/ha", "result": "0 (Herbicidal rate of 5% or less (almost no effect))"}, {"measurement": "herbicidal effect grade, N: redroot pigweed", "setting": "redroot pigweed; [3]", "result": "1 (Herbicidal rate of 5% or more and less than 20%)"}, {"measurement": "herbicidal effect grade, M: velvetleaf", "setting": "velvetleaf; [3]", "result": "2 (Herbicidal rate of 20% or more and less than 40%)"}, {"measurement": "herbicidal effect grade, J: blackgrass", "setting": "blackgrass; [3]", "result": "0 (Herbicidal rate of 5% or less (almost no effect))"}, {"measurement": "herbicidal effect grade, G: green foxtail", "setting": "green foxtail; [3]", "result": "0 (Herbicidal rate of 5% or less (almost no effect))"}, {"measurement": "herbicidal effect grade, R: persian speedwell", "setting": "persian speedwell; 99 g/ha, three weeks after application", "result": "0 (Herbicidal rate of 5% or less (almost no effect))"}]}
{"smiles": "C=CCOc1c(C)nn(C)c(=O)c1-c1c(-c2ccc(OC(F)F)cc2)sc2ccc(F)cc12", "note": "[2-300]", "values": [{"measurement": "herbicidal effect on H: barnyard grass", "setting": "barnyard grass [1]; [4]", "result": "3 (Herbicidal rate of 40% or more and less than 70%)"}, {"measurement": "H: barnyard grass, herbicidal effect (criteria 0-5)", "setting": "barnyard grass [2]; [5]", "result": "0 (Herbicidal rate of 5% or less (almost no effect))"}, {"measurement": "herbicidal effect on E: rice flat sedge", "setting": "rice flat sedge; [4]", "result": "3 (Herbicidal rate of 40% or more and less than 70%)"}, {"measurement": "I: wild oat, herbicidal effect (criteria 0-5)", "setting": "wild oat; [5]", "result": "0 (Herbicidal rate of 5% or less (almost no effect))"}, {"measurement": "O: lambsquarters, herbicidal effect (criteria 0-5)", "setting": "lambsquarters; [5]", "result": "5 (Herbicidal rate of 90% or more (almost completely withered))"}, {"measurement": "K: Italian ryegrass, herbicidal effect (criteria 0-5)", "setting": "Italian ryegrass; [5]", "result": "0 (Herbicidal rate of 5% or less (almost no effect))"}, {"measurement": "F: southern crabgrass, herbicidal effect (criteria 0-5)", "setting": "southern crabgrass; [5]", "result": "0 (Herbicidal rate of 5% or less (almost no effect))"}, {"measurement": "P: chickweed, herbicidal effect (criteria 0-5)", "setting": "chickweed; [5]", "result": "5 (Herbicidal rate of 90% or more (almost completely withered))"}, {"measurement": "N: redroot pigweed, herbicidal effect (criteria 0-5)", "setting": "redroot pigweed; [5]", "result": "3 (Herbicidal rate of 40% or more and less than 70%)"}, {"measurement": "M: velvetleaf, herbicidal effect (criteria 0-5)", "setting": "velvetleaf; [5]", "result": "1 (Herbicidal rate of 5% or more and less than 20%)"}, {"measurement": "J: blackgrass, herbicidal effect (criteria 0-5)", "setting": "blackgrass; [5]", "result": "0 (Herbicidal rate of 5% or less (almost no effect))"}, {"measurement": "G: green foxtail, herbicidal effect (criteria 0-5)", "setting": "green foxtail; [5]", "result": "0 (Herbicidal rate of 5% or less (almost no effect))"}, {"measurement": "R: persian speedwell, herbicidal effect (criteria 0-5)", "setting": "persian speedwell; AAH 320 g/ha, evaluated three weeks after application", "result": "5 (Herbicidal rate of 90% or more (almost completely withered))"}]}
{"smiles": "CCCC(=O)Oc1c(C)nn(C)c(=O)c1-c1c(-c2ccccc2OCOC)sc2c(Cl)cccc12", "note": "[4-084]", "values": [{"measurement": "herbicidal effect on barnyard grass (H)", "setting": "barnyard grass [1]; 320 g/ha", "result": "5 (Herbicidal rate of 90% or more (almost completely withered))"}, {"measurement": "Herbicidal effect by foliage application, H: barnyard grass", "setting": "barnyard grass [2]; [6]", "result": "3 (Herbicidal rate of 40% or more and less than 70%)"}, {"measurement": "herbicidal effect on rice flat sedge (E)", "setting": "rice flat sedge; 320 g/ha", "result": "4 (Herbicidal rate of 70% or more and less than 90%)"}, {"measurement": "Herbicidal effect by foliage application, I: wild oat", "setting": "wild oat; [6]", "result": "0 (Herbicidal rate of 5% or less (almost no effect))"}, {"measurement": "Herbicidal effect by foliage application, O: lambsquarters", "setting": "lambsquarters; [6]", "result": "0 (Herbicidal rate of 5% or less (almost no effect))"}, {"measurement": "Herbicidal effect by foliage application, K: Italian ryegrass", "setting": "Italian ryegrass; [6]", "result": "0 (Herbicidal rate of 5% or less (almost no effect))"}, {"measurement": "Herbicidal effect by foliage application, F: southern crabgrass", "setting": "southern crabgrass; [6]", "result": "3 (Herbicidal rate of 40% or more and less than 70%)"}, {"measurement": "Herbicidal effect by foliage application, P: chickweed", "setting": "chickweed; [6]", "result": "4 (Herbicidal rate of 70% or more and less than 90%)"}, {"measurement": "herbicidal effect on Chinese sprangletop (D)", "setting": "Chinese sprangletop; 320 g/ha", "result": "4 (Herbicidal rate of 70% or more and less than 90%)"}, {"measurement": "Herbicidal effect by foliage application, L: windgrass", "setting": "windgrass", "result": "0 (Herbicidal rate of 5% or less (almost no effect))"}, {"measurement": "Herbicidal effect by foliage application, N: redroot pigweed", "setting": "redroot pigweed; [6]", "result": "5 (Herbicidal rate of 90% or more (almost completely withered))"}, {"measurement": "Herbicidal effect by foliage application, M: velvetleaf", "setting": "velvetleaf; [6]", "result": "4 (Herbicidal rate of 70% or more and less than 90%)"}, {"measurement": "Herbicidal effect by foliage application, J: blackgrass", "setting": "blackgrass; [6]", "result": "0 (Herbicidal rate of 5% or less (almost no effect))"}, {"measurement": "Herbicidal effect by foliage application, G: green foxtail", "setting": "green foxtail; [6]", "result": "2 (Herbicidal rate of 20% or more and less than 40%)"}]}
